Results on three molecules are retold here after patent publication US20030003519A1, “Compositions and methods for the discovery and selection of biological information” (priority 2000, published 2003).

Like-named read-outs stand apart in the source and are kept apart here.

The subject of the assay is effect of IL-1β on SEAP reporter gene activity in selected NIH3T3 cells. In words: IL-1β-induced SEAP reporter gene activity in selected NIH3T3 cell clones. The assay is classed as cell-based. Particulars: IL-1β-stimulated selected NIH3T3 cells, read-out: IC50 value of the inhibition of SEAP activity. A general note: A reporter such as luciferase makes a cellular process visible.

The term IC50 denotes the concentration that inhibits the measured activity by half. `COc1cccc(-c2cc(=O)c3ccccc3o2)c1N` [PD98059]: the IC50 is approximately 1 µM.

Regarding `Cc1ccc(-c2cc(C(F)(F)F)nn2-c2ccc(S(N)(=O)=O)cc2)cc1` [celecoxib], the IC50 (Mus musculus) is approximately 0.2 µM.

For the molecule `N#CC(=C(/N)Sc1ccccc1N)/C(C#N)=C(\N)Sc1ccccc1N` [U0126], the IC50 (Mus musculus) is approximately 1 µM.
